Assays:
[1] = test system: axin2; experiment: Real Time RT-PCR in SW480 cells, axin2; type: cell-based, human; conditions: 25 μM; for ΔCT axin2: relative to β-actin
Method: (§1) The RNeasy Midi Kit (Qiagen) was used for RNA extraction and Real Time RT-PCR was performed according to the protocol provided with the SYBR Green PCR Master Mix Kit (Perkin Elmer Biosystems, Shelton, Conn.). The primers used for cyclin D1, axin2, hnkd, c-myc, c-jun, and fra-1 amplifications were: cyclin D1 forward primer:5′-[…]-CCTGCTG-3′ (SEQ ID NO: 32) reverse primer: 5′-[…]-3′ (SEQ ID NO: 33) leading to a product size of approximately 300 bp; axin2 forward primer: 5′-[…] GGAAA-CT-3′ (SEQ ID NO: 34) and reverse primer: 5′-[…]-GAGA-3′ (SEQ ID NO: 35); hnkd forward primer: 5′-[…] TTGCGT-3′ (SEQ ID NO: 36) and the reverse primer: 5′-[…] ACGT-3′ (SEQ ID NO: 37); c-myc forward primer: 5′-GAA-[…] CTGC-3′ (SEQ ID NO: 38) and reverse primer: 5′-[…]-G-3′ (SEQ ID NO: 39); c-jun forward primer: 5′-[…]-3′ (SEQ ID NO: 40) and reverse primer: 5′-[…]-3′ (SEQ ID NO: 41); fra-1 forward primer: 5′-ACC-[…]-[…]-3′ (SEQ ID NO: 42) and reverse primer: 5′-[…]-TT-3′ (SEQ ID NO: 43). β-actin was used for normalization. […]
(§2) 1 μg of mRNA, for each time point, was subjected to Real Time RT-PCR. Expression level of endogenous cyclin D1, c-myc, fibronectin, hnkd, axin2, c-jun, and BMP-4 were measured relative to β-actin. Quantitation of The ΔCycle of Threshold (CT) values was determined by subtracting the average values of each set by the corresponding average values obtained for β-actin. […]
(§3) The cyclin D1 gene is inappropriately expressed in many different tumor types, and is known to be a direct target of the Wnt/β-catenin pathway (Shtutman et al., “The cyclin D1 gene is a target of the beta-catenin/LEF-1 pathway,” Proc. Natl. Acad. Sci. USA 96:5522-27 (1999); Tetsu et al., “Beta-catenin regulates expression of cyclin D1 in colon carcinoma cells,” Nature 398:422-26 (1999)). […] Expression level of endogenous cyclin D1, c-myc, fibronectin, hnkd, axin2, c-jun, and BMP-4 were measured relative to β-actin. Quantitation of The ΔCycle of Threshold (CT) values was determined by subtracting the average values of each set by the corresponding average values obtained for β-actin. […]

[2] = test system: c-myc; experiment: Real Time RT-PCR in SW480 cells, c-myc; type: cell-based, human; conditions: 25 μM; for ΔCT c-myc: relative to β-actin
Method: as §1, §2, §3

[3] = biological target: T1, full-length mouse CBP (Mus musculus, UniProt P45481); experiment: 14C-labeled COMPOUND 1 incorporation into SW480 nuclear lysates transfected with CBP; type: binding; conditions: 100 μM and 200 μM cold COMPOUND 1, dose dependent
T1 construct: vectors expressing full-length Xenopus laevis β-catenin (2.2 μg) or full-length mouse CBP (1.1 μg); expressed in transfected cells; host or cells: SW480
Method: FIG. 1. COMPOUND 1 inhibits β-catenin/TCF transcription. • A(i) and A(ii). Structures of COMPOUND 1, COMPOUND 2, COMPOUND 3, COMPOUND 4, and COMPOUND 5. • B(i) and B(ii). […] SW480 cells (10^5), (FIG. 1B(i)), were transfected with β-catenin/TCF luciferase construct. Cells were treated with COMPOUND 1 (1-64 μM). 24 hours post treatment lysates were prepared and subjected to dual luciferase assay. The data is represented in different form in FIG. 1B(ii). • C. COMPOUND 1 has no effect on NFAT reporter construct. Stably transfected Jurkat cells, right panel, with an NFAT reporter construct, were stimulated with PMA (10 ng/ml)/lonomycin (1 μg/ml), and treated with COMPOUND 1 (0.781-50 μM). 24 hours post treatment lysates were prepared and subjected to dual luciferase assay. All experiments were performed in duplicate and the values plotted as means +/−standard deviation. • D. CBP is the molecular target of COMPOUND 1. […] The lysates were desalted using G-25 1 cc columns (Pharmacia) to remove the unbound ^14C-labeled-COMPOUND 1, and ^14C-labeled-COMPOUND 1 incorporation was measured.
A series of further investigations were performed to further validate that COMPOUND 1 binds CBP. […] Cell lysates were then desalted using G-25 columns to remove the unbound ^14C-labeled COMPOUND 1 and the incorporation of radioactivity was measured.

T1 sequence (P45481 whole entry): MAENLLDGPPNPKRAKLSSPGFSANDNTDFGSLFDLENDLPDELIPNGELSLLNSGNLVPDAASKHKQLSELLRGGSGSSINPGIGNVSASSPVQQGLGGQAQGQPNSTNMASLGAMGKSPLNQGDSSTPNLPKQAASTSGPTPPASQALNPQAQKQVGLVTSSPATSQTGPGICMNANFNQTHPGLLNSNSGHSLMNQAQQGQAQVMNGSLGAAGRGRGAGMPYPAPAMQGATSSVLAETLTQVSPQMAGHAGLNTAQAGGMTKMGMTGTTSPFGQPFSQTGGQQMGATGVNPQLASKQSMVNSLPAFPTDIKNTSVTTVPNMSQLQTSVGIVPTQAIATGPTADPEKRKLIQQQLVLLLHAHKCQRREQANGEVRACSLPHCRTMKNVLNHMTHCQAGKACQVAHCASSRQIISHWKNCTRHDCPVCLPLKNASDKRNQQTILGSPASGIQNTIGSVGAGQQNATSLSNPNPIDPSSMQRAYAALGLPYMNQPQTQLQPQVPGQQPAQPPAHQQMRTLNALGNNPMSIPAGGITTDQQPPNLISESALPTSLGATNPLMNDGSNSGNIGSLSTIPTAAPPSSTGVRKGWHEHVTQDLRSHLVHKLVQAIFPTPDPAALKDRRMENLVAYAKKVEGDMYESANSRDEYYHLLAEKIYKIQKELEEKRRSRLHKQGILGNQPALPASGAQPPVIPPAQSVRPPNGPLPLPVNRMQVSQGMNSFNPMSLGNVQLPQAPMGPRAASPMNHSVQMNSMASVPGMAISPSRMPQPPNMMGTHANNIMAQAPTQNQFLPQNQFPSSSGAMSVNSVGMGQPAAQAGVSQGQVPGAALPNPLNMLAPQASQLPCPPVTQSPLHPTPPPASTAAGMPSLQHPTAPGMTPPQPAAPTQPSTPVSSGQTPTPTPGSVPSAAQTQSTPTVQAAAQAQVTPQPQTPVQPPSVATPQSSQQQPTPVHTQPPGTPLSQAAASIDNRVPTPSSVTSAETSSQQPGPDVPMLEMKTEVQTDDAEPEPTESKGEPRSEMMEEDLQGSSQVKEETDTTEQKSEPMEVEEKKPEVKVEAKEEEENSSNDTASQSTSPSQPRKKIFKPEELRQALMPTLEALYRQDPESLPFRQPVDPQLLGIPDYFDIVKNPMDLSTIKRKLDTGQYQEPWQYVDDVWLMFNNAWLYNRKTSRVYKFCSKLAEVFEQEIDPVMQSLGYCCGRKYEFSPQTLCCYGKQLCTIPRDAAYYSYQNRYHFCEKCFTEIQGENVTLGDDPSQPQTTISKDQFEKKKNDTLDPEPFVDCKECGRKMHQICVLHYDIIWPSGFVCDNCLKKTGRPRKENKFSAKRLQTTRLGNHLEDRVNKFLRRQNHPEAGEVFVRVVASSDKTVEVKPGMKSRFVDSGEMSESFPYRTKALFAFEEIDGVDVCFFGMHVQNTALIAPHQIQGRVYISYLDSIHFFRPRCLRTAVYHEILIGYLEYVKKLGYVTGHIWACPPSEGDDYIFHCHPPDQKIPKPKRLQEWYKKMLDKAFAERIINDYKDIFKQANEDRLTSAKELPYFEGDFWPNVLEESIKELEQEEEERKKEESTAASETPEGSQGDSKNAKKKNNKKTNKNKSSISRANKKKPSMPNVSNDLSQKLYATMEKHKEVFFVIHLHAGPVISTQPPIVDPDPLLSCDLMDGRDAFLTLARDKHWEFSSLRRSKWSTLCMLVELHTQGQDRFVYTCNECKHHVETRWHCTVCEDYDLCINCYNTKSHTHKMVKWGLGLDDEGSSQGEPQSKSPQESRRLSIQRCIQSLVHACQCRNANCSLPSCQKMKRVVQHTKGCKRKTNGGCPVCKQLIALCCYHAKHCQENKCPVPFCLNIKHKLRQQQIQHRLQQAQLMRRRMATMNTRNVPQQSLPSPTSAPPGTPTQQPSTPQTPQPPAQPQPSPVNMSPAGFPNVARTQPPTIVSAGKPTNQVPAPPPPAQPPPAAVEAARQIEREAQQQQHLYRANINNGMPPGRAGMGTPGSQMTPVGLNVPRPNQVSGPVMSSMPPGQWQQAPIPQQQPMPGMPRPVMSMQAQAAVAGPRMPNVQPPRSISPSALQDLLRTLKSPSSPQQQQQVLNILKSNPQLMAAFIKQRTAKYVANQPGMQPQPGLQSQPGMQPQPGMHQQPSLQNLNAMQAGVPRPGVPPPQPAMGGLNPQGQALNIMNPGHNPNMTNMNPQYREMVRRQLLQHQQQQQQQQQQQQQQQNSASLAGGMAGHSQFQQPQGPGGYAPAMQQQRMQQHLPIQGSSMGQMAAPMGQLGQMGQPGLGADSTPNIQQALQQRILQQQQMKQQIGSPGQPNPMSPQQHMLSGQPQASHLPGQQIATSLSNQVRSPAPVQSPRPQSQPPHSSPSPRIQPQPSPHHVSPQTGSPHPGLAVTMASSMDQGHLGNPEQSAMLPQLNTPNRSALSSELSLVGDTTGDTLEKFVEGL

For `O=C1C(Cc2ccc(O)cc2)N2C(=O)CCN(C(=O)NCc3ccccc3)C2CN1Cc1cccc2ccccc12` (stereo not shown) [COMPOUND 1], the “mRNA axin2 (direction)” value [1] was “↓”, the “ΔCT axin2” value ([1]; 4 hours) was 0.3 and the “ΔCT axin2” value ([1]; 8 hours) was 0.8. For the same compound, the “mRNA c-myc (direction)” value [2] was “↑”, the ΔCT c-myc ([2]; 4 hours) was −0.9 and the ΔCT c-myc ([2]; 8 hours) was −2.4. For the same compound, the “Competition of 14C-labeled COMPOUND 1 incorporation by cold COMPOUND 1” value [3] was “competed away”.
